Test results published in patent US20180051316A1, “DETECTION OF NUCLEIC ACID POLYMERASE CONFORMATIONAL CHANGES USING A NANOTUBE” (priority 2014, published 2018).
pKi: −log10 of the molar value. Values joined by “and” are separate entries in the source; they are usually repeats but may differ in a detail not shown here. Identical values can stand only once. “Also recorded” adds a separate entry of the source. Like-named read-outs stand apart in the source and are kept apart here. Marks after values point to notes of the source that are not given here.

Experiments:
[1] = biological target: T1, DNA polymerase I (Klenow Fragment) (Escherichia coli, UniProt P00582, C907S/D355A/E357A/L790C); type: biochemical; conditions: for k: k=(<τopen>+<τclosed>)^−1; for <τclosed> / <τopen>: native dNTP 10 μM, analog 100 μM, average ± standard deviation; for direction of current spike ΔI per base incorporation: KF processing poly(dA)42; for τopen events encompassed by single exponential fit / τopen events deviating from the single exponential fit: poly(dC)42; for τopen events encompassed by single exponential fit: more than 50 s of polymerization data; for direction of ΔI(t) excursions: poly(dC)42 template; for frequency of ΔI(t) excursions relative to dGTP: complementary template-primer; for time constant of second exponential fit to tail of τopen distribution: poly(dC)42 template (FIG. 3B)
T1 construct: Single copies of the Klenow Fragment (KF) of DNA polymerase I were attached to single-walled carbon nanotube devices; made in house; host or cells: E. coli BL21(DE3)
T1 sequence (P00582 324-928 D355A/E357A/L790C/C907S): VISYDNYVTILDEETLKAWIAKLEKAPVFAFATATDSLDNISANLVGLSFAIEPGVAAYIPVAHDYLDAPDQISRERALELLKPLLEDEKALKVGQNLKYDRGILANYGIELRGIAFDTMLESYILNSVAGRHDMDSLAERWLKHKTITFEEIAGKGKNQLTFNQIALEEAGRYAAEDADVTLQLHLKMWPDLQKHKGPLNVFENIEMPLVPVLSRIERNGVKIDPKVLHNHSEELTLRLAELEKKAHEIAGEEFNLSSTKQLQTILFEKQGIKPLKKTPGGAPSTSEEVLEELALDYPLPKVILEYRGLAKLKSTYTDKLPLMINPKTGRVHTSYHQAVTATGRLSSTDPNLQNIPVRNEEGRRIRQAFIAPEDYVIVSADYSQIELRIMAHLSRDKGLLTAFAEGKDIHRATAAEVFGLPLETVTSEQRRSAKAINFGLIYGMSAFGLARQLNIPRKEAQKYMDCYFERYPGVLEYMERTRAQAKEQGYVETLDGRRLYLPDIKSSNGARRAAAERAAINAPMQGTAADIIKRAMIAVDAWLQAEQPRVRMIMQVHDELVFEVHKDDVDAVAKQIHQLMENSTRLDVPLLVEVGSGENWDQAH
Experimental: In embodiments, SWCNT-FETs are fabricated and functionalized with a single-cysteine variant of exonuclease-deficient KF (D355A/E357A/L790C/C907S). […] Attachment of KF to SWCNT-FETs is accomplished by soaking the devices in a solution of N-(1-pyrenyl)maleimide (1 mM in ethanol, 30 min), followed by incubation with KF (300 nM KF in a standard KF activity buffer of 20 mM Tris, 50 mM NaCl, 10 mM MgCl2, 100 μM TCEP, pH 8.0). […] Such devices are referred to simply as KF nanocircuits.
In embodiments, homopolymeric templates poly(dA)42, poly(dT)42, poly(dG)42, or poly(dC)42 mixed with complementary dNTP analogs are used for detecting conformational change of a polymerase, e.g., DNA polymerase. In embodiments, each template is fused to an M13 priming site and mixed with an M13 forward primer in a 1:1 stoichiometric ratio; for hybridization, the mixture is heated in a thermal cycler to 95° C. for 5 to 10 min followed by cooling to 65° C. then further cooling with a gradient of 5° C. every five min until reaching room temperature. In embodiments, KF nanocircuits are immersed in activity buffer with the annealed template-primer at 100 nM concentrations. Native or analog dNTPs are added to the buffer in excess, ensuring Vmax conditions for KF catalysis.
In embodiments, measurements consist of monitoring the source-drain current, I(t), through the SWCNT-FET while the attached KF molecule interacted with its surrounding environment. […] In embodiments, I(t) fluctuations are amplified, digitized at 100 kHz, and stored as uninterrupted, 600 s. Between measurements, the KF nanocircuits may be rinsed twice with activity buffer, incubated in buffer for 5 min, then rinsed twice with buffer before introducing another nucleotide and template-primer.
SWCNT FETs were fabricated and functionalized with a single cysteine variant of exonuclease-deficient KF. […] [20,21]
For each measurement, dNTPs were chosen to complement the homopolymeric templates poly(dA)42, poly(dT)42, poly(dG)42, and poly(dC)42. Each template was fused to an M13 priming site and mixed with an M13 forward primer in a 1:1 stoichiometric ratio; for hybridization, the mixture was heated to 95° C. for 5 to 10 minutes followed by cooling to room temperature. SWCNT FETs were immersed in a standard DNA Pol I activity buffer (20 mM Tris, 50 mM NaCl, 10 mM MgCl2, 100 μM TCEP, pH 8.0) with the template-primer hybrid at 100 nM concentration. Native or analog dNTPs were added to the buffer in excess, ensuring Vmax conditions for KF.
Measurements consisted of monitoring the source-drain current I(t) of a SWCNT FET while the attached KF molecule interacted with its surrounding environment.

[2] = biological target: T2, KF (Escherichia coli, UniProt P00582, C907S/D355A/E357A/L790C); type: biochemical; conditions: 100 μM analog, 25° C., 2 h
T2 construct: Single copies of the Klenow Fragment (KF) of DNA polymerase I were attached to single-walled carbon nanotube devices; made in house; host or cells: E. coli BL21(DE3)
T2 sequence (P00582 324-928 D355A/E357A/L790C/C907S): as above
Experimental: Polymerization products with dNTP analogs and the A/T incorporation template (FIG. 8A) or the G/C incorporation template (FIG. 8B) were electrophoresed on a 5% high-resolution agarose gel. […] After visualization, the image colors were inverted, then changed to black and white.
Positive control reactions contained KF (1 μM), dNTPs or dNTP analogs (100 μM), and A/T or G/C incorporation template-primer (5 μM) in 10 mM Tris, 50 mM NaCl, 10 mM MgCl2, 1 mM DTT, pH 7.9. Reactions to test dNTP analog incorporation contained 100 μM analog in place of its native dNTP, and negative control reactions omitted either the analog or its native dNTP. Reactions were kept at 25° C. for 2 h in a thermal cycler before electrophoresis on a 5% high resolution agarose gel (FIG. 8B).

[3] = biological target: KF active site (Escherichia coli, UniProt P00582); conditions: inhibition of KF catalysis; cited from earlier work
Chain of KF active site (P00582 324-928): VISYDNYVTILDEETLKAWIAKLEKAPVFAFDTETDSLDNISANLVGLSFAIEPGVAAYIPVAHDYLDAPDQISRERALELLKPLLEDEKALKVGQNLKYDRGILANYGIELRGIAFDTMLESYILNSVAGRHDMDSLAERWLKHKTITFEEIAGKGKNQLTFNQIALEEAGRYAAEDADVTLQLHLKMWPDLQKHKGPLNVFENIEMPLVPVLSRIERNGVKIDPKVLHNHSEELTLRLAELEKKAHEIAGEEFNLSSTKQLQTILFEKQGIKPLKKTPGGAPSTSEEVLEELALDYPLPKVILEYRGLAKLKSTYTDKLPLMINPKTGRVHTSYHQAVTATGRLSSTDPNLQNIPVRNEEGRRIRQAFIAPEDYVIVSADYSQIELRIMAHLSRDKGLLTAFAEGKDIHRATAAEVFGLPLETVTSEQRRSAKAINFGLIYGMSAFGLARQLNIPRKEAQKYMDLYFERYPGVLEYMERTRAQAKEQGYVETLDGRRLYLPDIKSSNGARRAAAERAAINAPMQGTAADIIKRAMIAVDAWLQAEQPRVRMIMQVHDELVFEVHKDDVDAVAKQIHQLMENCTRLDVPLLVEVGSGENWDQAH

[4] = complementary homopolymeric template

Compound: Nc1ccn([C@H]2C[C@H](O)[C@@H](COP(=O)(O)OP(=O)(O)OP(=O)(O)O)O2)c(=S)n1 [2-thio-dCTP]
- enzyme closure time τclosed compared to native dNTPs [1, 4]: no difference
- rate of incorporation compared with native dNTPs [1, 4]: slightly faster; also recorded: approximately the same
- k ([1]; template poly(dG)42): 30.6 ± 1.2^b 1/s
- <τclosed> ([1]; template poly(dG)42): 0.41 ± 0.15^b ms
- <τopen> ([1]; template poly(dG)42): 32.3 ± 1.1^b ms
- incorporation into dsDNA, native counterpart omitted ([2]; G/C incorporation template): incorporated opposite the template base G

Compound: Nc1ncnc2c1ncn2[C@H]1C[C@H](O)[C@@H](COP(=O)(O)OP(=O)(O)OP(=O)(O)O)O1 [dATP]
- k ([1]; template poly(dT)42): 16.8 ± 0.4 s⁻¹
- <τclosed> ([1]; template poly(dT)42): 0.34 ± 0.18 ms
- <τopen> ([1]; template poly(dT)42): 58.9 ± 1.2 ms

Compound: Cc1cn([C@H]2C[C@H](O)[C@@H](COP(O)(=S)OP(=O)(O)OP(=O)(O)O)O2)c(=O)[nH]c1=O (stereo partly drawn) [α-thio-dTTP]
- average KF processing rate k for dNTP incorporation [1, 4]: 7 s⁻¹
- k ([1]; template poly(dA)42): 6.6 ± 0.3 s⁻¹
- <τclosed> ([1]; template poly(dA)42): 0.29 ± 0.13 ms
- <τopen> ([1]; template poly(dA)42): 152.1 ± 6.6 ms
- incorporation into dsDNA, native counterpart omitted ([2]; A/T incorporation template): incorporated opposite the template base A

Compound: Cc1cn([C@H]2C[C@H](O)[C@@H](COP(=O)(O)OP(=O)(O)OP(=O)(O)O)O2)c(=S)[nH]c1=O [2-thio-dTTP, 2-thio-2′-deoxythimidine-5′-triphosphate]
- direction of current spike ΔI per base incorporation [1]: positive current spikes ΔI>0
- average KF processing rate k for dNTP incorporation [1, 4]: 16 s⁻¹
- enzyme closure time τclosed compared to native dNTPs [1, 4]: no difference
- rate of incorporation compared with native dNTPs [1, 4]: slightly faster; also recorded: approximately the same
- k ([1]; template poly(dA)42): 16.3 ± 0.9^b 1/s
- <τclosed> ([1]; template poly(dA)42): 0.23 ± 0.14^b ms
- <τopen> ([1]; template poly(dA)42): 61.1 ± 3.2^b ms
- incorporation into dsDNA, native counterpart omitted ([2]; A/T incorporation template): incorporated opposite the template base A

Compound: Nc1ncnc2c1ncn2[C@H]1C[C@H](O)[C@@H](COP(O)(=S)OP(=O)(O)OP(=O)(O)O)O1 (stereo partly drawn) [α-thio-dATP]
- effect of lower analog concentration on DNA polymerization ([1]; 10 μM analog instead of 100 μM, poly(dT)42 template): did not affect DNA polymerization
- average KF processing rate k for dNTP incorporation [1, 4]: 7 s⁻¹
- k ([1]; template poly(dT)42): 6.8 ± 0.4 s⁻¹
- <τclosed> ([1]; template poly(dT)42): 0.38 ± 0.21 ms
- <τopen> ([1]; template poly(dT)42): 145 ms and 145.9 ± 8.4 ms
- incorporation into dsDNA, native counterpart omitted ([2]; A/T incorporation template): incorporated opposite the template base T

Compound: Cc1cn([C@H]2C[C@H](O)[C@@H](COP(=O)(O)OP(=O)(O)OP(=O)(O)O)O2)c(=O)[nH]c1=O [dTTP, deoxythymidine triphosphate]
- direction of current spike ΔI per base incorporation [1]: negative current spike ΔI<0
- k ([1]; template poly(dA)42): 14.3 ± 0.5 s⁻¹
- <τclosed> ([1]; template poly(dA)42): 0.33 ± 0.12 ms
- <τopen> ([1]; template poly(dA)42): 69.6 ± 2.3 ms

Compound: Cc1cn(C2CC(O)C(COP(O)(=S)OP(=O)(O)OP(=O)(O)O)O2)c(=O)[nH]c1=O (single isomer, unassigned) [Rp diastereomer of α-thio-dTTP]
- pKi [3]: ~4.52

Compound: Nc1ccn([C@H]2C[C@H](O)[C@@H](COP(=O)(O)OP(=O)(O)OP(=O)(O)O)O2)c(=O)n1 [dCTP]
- k ([1]; template poly(dG)42): 23.2 ± 3.2 s⁻¹
- <τclosed> ([1]; template poly(dG)42): 0.35 ± 0.20 ms
- <τopen> ([1]; template poly(dG)42): 42.8 ± 5.0 ms

Compound: Nc1nc2c(ncn2[C@H]2C[C@H](O)[C@@H](COP(=O)(O)OP(=O)(O)OP(=O)(O)O)O2)c(=O)[nH]1 [dGTP]
- average KF processing rate k for dNTP incorporation [1, 4]: 41 s⁻¹
- τopen events encompassed by single exponential fit [1]: > 90%
- direction of ΔI(t) excursions [1]: negative ΔI(t) excursions
- k ([1]; template poly(dC)42): 24.3 ± 4.3 s⁻¹
- <τclosed> ([1]; template poly(dC)42): 0.40 ± 0.20 ms
- <τopen> ([1]; template poly(dC)42): 40.8 ± 6.0 ms

Compound: Nc1nc(Cl)c2ncn([C@H]3C[C@H](O)[C@@H](COP(=O)(O)OP(=O)(O)OP(=O)(O)O)O3)c2n1 [6-Cl-2APTP, 2-amino-6-Cl-purine-2′-deoxyriboside-triphosphate]
- average KF processing rate k for dNTP incorporation [1, 4]: 20 s⁻¹
- enzyme closure time τclosed compared to native dNTPs [1, 4]: no difference
- rate of incorporation compared with native dNTPs [1, 4]: compared most favorably to the slowest rates observed for native dGTP incorporation; also recorded: more quickly than native dATP
- τopen relative to native dNTP (times longer) [1, 4]: about twice as long
- frequency of ΔI(t) excursions relative to dGTP [1]: two to three times less frequently
- direction of ΔI(t) current fluctuations ([1]; complementary template-primers): positive current fluctuations
- direction of current spikes ([1]; heterogeneous substrates, nucleotide mixtures (FIG. 5A, 5C)): positive current spikes
- direction of ΔI(t) signals ([1]; opposite both poly(dC)42 and poly(dT)42 templates): inverted amplitude
- rate of ΔI(t) excursions relative to dGTP ([1]; opposite poly(dC)42): 80%
- τopen events deviating from the single exponential fit [1]: Approximately twenty-five percent
- τopen events encompassed by single exponential fit [1]: ≈ 75%
- direction of ΔI(t) excursions [1]: Positive ΔI(t) excursions
- time constant of second exponential fit to tail of τopen distribution [1]: 200 ms
- k ([1]; template poly(dC)42): 19.7 ± 0.6 s⁻¹
- <τclosed> ([1]; template poly(dC)42): 0.20 ± 0.12 ms
- <τopen> ([1]; template poly(dC)42): 50.5 ± 1.4 ms
- <τopen> ([1]; template poly(dC)42, listed as 6-Cl-dGTP): 50 ± 1 ms
- incorporation into dsDNA, native counterpart omitted ([2]; A/T incorporation template): incorporated opposite the template base T
- incorporation into dsDNA, native counterpart omitted ([2]; G/C incorporation template): incorporated opposite the template base C

Compound: Nc1nc2c(ncn2[C@H]2C[C@H](O)[C@@H](COP(O)(=S)OP(=O)(O)OP(=O)(O)O)O2)c(=O)[nH]1 (stereo partly drawn) [α-thio-dGTP]
- average KF processing rate k for dNTP incorporation [1, 4]: 15 s⁻¹
- increase of <τopen> relative to native dNTP [1, 4]: 56%
- τopen relative to native dNTP (times longer) [1, 4]: approximately 2.5
- frequency of ΔI(t) excursions relative to dGTP [1]: two to three times less frequently
- τopen events deviating from the single exponential fit [1]: Approximately twenty-five percent
- τopen events encompassed by single exponential fit [1]: ≈ 75%
- time constant of second exponential fit to tail of τopen distribution [1]: 200 ms
- k ([1]; template poly(dC)42): 15.7 ± 0.7 s⁻¹
- <τclosed> ([1]; template poly(dC)42): 0.21 ± 0.15 ms
- <τopen> ([1]; template poly(dC)42): 63 ± 3 ms and 63.6 ± 2.8 ms
- incorporation into dsDNA, native counterpart omitted ([2]; G/C incorporation template): incorporated opposite the template base C

Compound: Nc1ccn([C@H]2C[C@H](O)[C@@H](COP(O)(=S)OP(=O)(O)OP(=O)(O)O)O2)c(=O)n1 (stereo partly drawn) [α-thio-dCTP]
- average KF processing rate k for dNTP incorporation [1, 4]: 15 s⁻¹
- k ([1]; template poly(dG)42): 14.5 ± 1.0 s⁻¹
- <τclosed> ([1]; template poly(dG)42): 0.33 ± 0.19 ms
- <τopen> ([1]; template poly(dG)42): 68.8 ± 4.6 ms
- incorporation into dsDNA, native counterpart omitted ([2]; G/C incorporation template): incorporated opposite the template base G
